Test results: patent US20240124442A1, “TRICYCLIC-AMIDO-BICYCLIC PRMT5 INHIBITORS” (AMGEN INC., priority 2021, published 2024)

Assays:
HCT116 MTAP null cells = assay: HCT116 MTAP null cell line proliferation / cell viability (CellTiter-Glo, 6 days); type: cell-based; conditions: 144 h; HCT116 MTAP null cells, 6 days treatment, CellTiter-Glo cell viability; read-out: HCT-116 MTAP null IC50
How it was run: (§1)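 Viability read by CellTiter-Glo luminescence after 6 days of compound treatment of HCT116 WT and MTAP-null cells (RPMI 1640, 10% FBS). Dose series were 1:3 steps from 1 or 10 μM (8–9 points), or 1:2 steps from 10 or 50 μM (22 points). IC50 from 4-parameter logistic or fixed-slope sigmoidal fit.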

HCT116 WT cells = assay: HCT116 WT (parent) cell line proliferation / cell viability (CellTiter-Glo, 6 days); type: cell-based; conditions: Homo sapiens, HCT-116, 144 h, 6 days treatment
How it was run: as §1

| Structure (SMILES) | IC50 (HCT116 MTAP null cells) [nM] | IC50 (HCT116 WT cells) [nM] |
| --- | --- | --- |
| CN(C(=O)c1cc2c(cc1Cl)nc(N)c1cnn(C)c12)[C@@H]1COc2cc(C(F)(F)F)ccc21 [Example 480, 4-amino-7-chloro-N,1-dimethyl-N-((3S)-6-(trifluoromethyl)-2,3-dihydro-1-benzofuran-3-yl)-1H-pyrazolo[4,3-c]quinoline-8-carboxamide] | 4 | 43 |
| CN(C(=O)c1cc2c(cc1Cl)nc(N)c1c2cnn1C)[C@@H]1COc2cc(C(F)(F)F)ccc21 [Example 486, 4-amino-7-chloro-N,3-dimethyl-N-((3S)-6-(trifluoromethyl)-2,3-dihydro-1-benzofuran-3-yl)-3H-pyrazolo[3,4-c]quinoline-8-carboxamide] | 78 | 4880 |
| CN(C(=O)c1cc2c(cc1Cl)nc(N)c1c2cnn1C)[C@@H]1COc2cc(OC(F)(F)F)ccc21 [Example 487, 4-amino-7-chloro-N,3-dimethyl-N-((3S)-6-(trifluoromethoxy)-2,3-dihydro-1-benzofuran-3-yl)-3H-pyrazolo[3,4-c]quinoline-8-carboxamide] | 47 | 2870 |
| C[C@H]1OCc2c1c(N)nc1ccc(C(=O)N(C)[C@@H]3COCc4nc(C(F)(F)F)ccc43)cc21 [Example 488, (3R)-4-amino-N,3-dimethyl-N-((5S)-2-(trifluoromethyl)-5,8-dihydro-6H-pyrano[3,4-b]pyridin-5-yl)-1,3-dihydrofuro[3,4-c]quinoline-8-carboxamide] | 13 | 682 |
| CN(C(=O)c1cc2c3c(c(N)nc2cn1)COC3)[C@@H]1COCc2cc(C#N)ccc21 [Example 489, 4-amino-N-((4S)-7-cyano-3,4-dihydro-1H-2-benzopyran-4-yl)-N-methyl-1,3-dihydrofuro[3,4-c][1,7]naphthyridine-8-carboxamide] | 49 | 2220 |
| CN(C(=O)c1cc2c3c(c(N)nc2cn1)COC3)[C@@H]1COCc2cc(C(F)(F)F)ccc21 [Example 490, 4-amino-N-methyl-N-((4S)-7-(trifluoromethyl)-3,4-dihydro-1H-2-benzopyran-4-yl)-1,3-dihydrofuro[3,4-c][1,7]naphthyridine-8-carboxamide] | 33 | 1030 |
| CN(C(=O)c1cc2c3c(c(N)nc2cn1)COC3)[C@@H]1COCc2cc(C(F)(F)F)ncc21 [Example 492, 4-amino-N-methyl-N-((4S)-7-(trifluoromethyl)-3,4-dihydro-1H-pyrano[4,3-c]pyridin-4-yl)-1,3-dihydrofuro[3,4-c][1,7]naphthyridine-8-carboxamide] | 706 | 31400 |
| CN(C(=O)c1cnc2nc(N)c3c(c2c1)COC3)[C@@H]1COCc2cc(C(F)(F)F)ccc21 [Example 493, 4-amino-N-methyl-N-((4S)-7-(trifluoromethyl)-3,4-dihydro-1H-2-benzopyran-4-yl)-1,3-dihydrofuro[3,4-c][1,8]naphthyridine-8-carboxamide] | 92 | 2050 |
| CN(C(=O)c1cc2c3c(c(N)nc2cc1F)COC3)[C@@H]1COCc2nc(C(F)(F)F)ccc21 [Example 494, 4-amino-7-fluoro-N-methyl-N-((5S)-2-(trifluoromethyl)-5,8-dihydro-6H-pyrano[3,4-b]pyridin-5-yl)-1,3-dihydrofuro[3,4-c]quinoline-8-carboxamide] | 23 | 671 |
| CN(C(=O)c1cc2c3c(c(N)nc2cc1Cl)COC3)[C@@H]1COCc2cc(C#N)ccc21 [Example 496, 4-amino-7-chloro-N-((4S)-7-cyano-3,4-dihydro-1H-2-benzopyran-4-yl)-N-methyl-1,3-dihydrofuro[3,4-c]quinoline-8-carboxamide] | 5 | 205 |
| Cc1noc2c1c(N)nc1ccc(C(=O)N(C)[C@@H]3COCc4cc(C#N)ccc43)cc12 [Example 497, 4-amino-N-((4S)-7-cyano-3,4-dihydro-1H-2-benzopyran-4-yl)-N,3-dimethyl[1,2]oxazolo[4,5-c]quinoline-8-carboxamide] | 350 | 19700 |
| CN(C(=O)c1ccc2nc(N)c3cnn(C)c3c2c1)[C@@H]1COCc2cc(C(F)(F)F)ccc21 [Example 499, 4-amino-N,1-dimethyl-N-((4S)-7-(trifluoromethyl)-3,4-dihydro-1H-2-benzopyran-4-yl)-1H-pyrazolo[4,3-c]quinoline-8-carboxamide] | 4 | 152 |
| CCN(C(=O)c1ccc2nc(N)c3cnn(C)c3c2c1)[C@@H]1COCc2nc(C(F)(F)F)ccc21 [Example 501, 4-amino-N-ethyl-1-methyl-N-((5S)-2-(trifluoromethyl)-5,8-dihydro-6H-pyrano[3,4-b]pyridin-5-yl)-1H-pyrazolo[4,3-c]quinoline-8-carboxamide] | 4 | 141 |
| CCN(C(=O)c1ccc2nc(N)c3cnn(C)c3c2c1)[C@H]1COCc2nc(C(F)(F)F)ccc21 [Example 502, 4-amino-N-ethyl-1-methyl-N-((5R)-2-(trifluoromethyl)-5,8-dihydro-6H-pyrano[3,4-b]pyridin-5-yl)-1H-pyrazolo[4,3-c]quinoline-8-carboxamide] | 414 | 11800 |
| CC(C)CN(C(=O)c1ccc2nc(N)c3cnn(C)c3c2c1)[C@@H]1COCc2nc(C(F)(F)F)ccc21 [Example 504, 4-amino-1-methyl-N-(2-methylpropyl)-N-((5S)-2-(trifluoromethyl)-5,8-dihydro-6H-pyrano[3,4-b]pyridin-5-yl)-1H-pyrazolo[4,3-c]quinoline-8-carboxamide] | 4 | 144 |
| CC(C)CN(C(=O)c1ccc2nc(N)c3cnn(C)c3c2c1)[C@H]1COCc2nc(C(F)(F)F)ccc21 [Example 505, 4-amino-1-methyl-N-(2-methylpropyl)-N-((5R)-2-(trifluoromethyl)-5,8-dihydro-6H-pyrano[3,4-b]pyridin-5-yl)-1H-pyrazolo[4,3-c]quinoline-8-carboxamide] | 244 | 12100 |
| CN(C(=O)c1cc2c(cc1F)nc(N)c1cnn(C)c12)[C@@H]1COCc2cc(C(F)(F)F)ccc21 [Example 506, 4-amino-7-fluoro-N,1-dimethyl-N-((4S)-7-(trifluoromethyl)-3,4-dihydro-1H-2-benzopyran-4-yl)-1H-pyrazolo[4,3-c]quinoline-8-carboxamide] | 4 | 34 |
| CN(C(=O)c1cc2c(cc1F)nc(N)c1cnn(C)c12)[C@@H]1COCc2nc(C(F)(F)F)ccc21 [Example 507, 4-amino-7-fluoro-N,1-dimethyl-N-((5S)-2-(trifluoromethyl)-5,8-dihydro-6H-pyrano[3,4-b]pyridin-5-yl)-1H-pyrazolo[4,3-c]quinoline-8-carboxamide] | 8 | 162 |

Continued by falling IC50 (HCT116 MTAP null cells), values first:

| IC50 (HCT116 MTAP null cells) [nM] | IC50 (HCT116 WT cells) [nM] | Structure (SMILES) |
| --- | --- | --- |
| 185 | 9110 | Cc1noc2c1c(N)nc1ccc(C(=O)N(C)[C@@H]3COCc4cc(C(F)(F)F)ccc43)cc12 [Example 498, 4-amino-N,3-dimethyl-N-((4S)-7-(trifluoromethyl)-3,4-dihydro-1H-2-benzopyran-4-yl)[1,2]oxazolo[4,5-c]quinoline-8-carboxamide] |
| 81 | 5280 | CN(C(=O)c1cc2c(cc1F)nc(N)c1c2cnn1C)[C@@H]1COc2cc(Cl)c(Cl)cc21 [Example 483, 4-amino-N-((3S)-5,6-dichloro-2,3-dihydro-1-benzofuran-3-yl)-7-fluoro-N,3-dimethyl-3H-pyrazolo[3,4-c]quinoline-8-carboxamide] |
| 43 | 2060 | CN(C(=O)c1cc2c3c(c(N)nc2cn1)COC3)[C@@H]1COCc2nc(C(F)(F)F)ccc21 [Example 491, 4-amino-N-methyl-N-((5S)-2-(trifluoromethyl)-5,8-dihydro-6H-pyrano[3,4-b]pyridin-5-yl)-1,3-dihydrofuro[3,4-c][1,7]naphthyridine-8-carboxamide] |
| 18 | 1260 | Cn1ncc2c(N)nc3ccc(C(=O)N(C4CC4)[C@@H]4COCc5nc(C(F)(F)F)ccc54)cc3c21 [Example 503, 4-amino-N-cyclopropyl-1-methyl-N-((5S)-2-(trifluoromethyl)-5,8-dihydro-6H-pyrano[3,4-b]pyridin-5-yl)-1H-pyrazolo[4,3-c]quinoline-8-carboxamide] |
| 15 | 386 | C[C@H]1OCc2c1c(N)nc1cc(F)c(C(=O)N(C)[C@@H]3COCc4nc(C(F)(F)F)ccc43)cc21 [Example 495, (3R)-4-amino-7-fluoro-N,3-dimethyl-N-((5S)-2-(trifluoromethyl)-5,8-dihydro-6H-pyrano[3,4-b]pyridin-5-yl)-1,3-dihydrofuro[3,4-c]quinoline-8-carboxamide] |
| 10 | 501 | CN(C(=O)c1ccc2nc(N)c3cnn(C)c3c2c1)[C@@H]1COCc2cc(C(F)(F)F)ncc21 [Example 500, 4-amino-N,1-dimethyl-N-((4S)-7-(trifluoromethyl)-3,4-dihydro-1H-pyrano[4,3-c]pyridin-4-yl)-1H-pyrazolo[4,3-c]quinoline-8-carboxamide] |
| 5 | 133 | CN(C(=O)c1cc2c(cc1F)nc(N)c1cnn(C)c12)[C@@H]1COc2cc(OC(F)(F)F)ccc21 [Example 478, 4-amino-7-fluoro-N,1-dimethyl-N-((3S)-6-(trifluoromethoxy)-2,3-dihydro-1-benzofuran-3-yl)-1H-pyrazolo[4,3-c]quinoline-8-carboxamide] |
| 5 | 45 | CN(C(=O)c1cc2c(cc1Cl)nc(N)c1cnn(C)c12)[C@@H]1COc2cc(OC(F)(F)F)ccc21 [Example 481, 4-amino-7-chloro-N,1-dimethyl-N-((3S)-6-(trifluoromethoxy)-2,3-dihydro-1-benzofuran-3-yl)-1H-pyrazolo[4,3-c]quinoline-8-carboxamide] |
